Results published in PubChem BioAssay AID248 (DTP/NCI, 2004).
Toxic doses and inconclusive results are not listed. Cut-off read from the data, not from the text of the source: active = T/C of 150% or more; inactive = T/C below 125%.

Test system: L1210 leukemia ip in BDF1 mice, survival T/C
Assay: NCI In Vivo Anticancer Drug Screen. Data for tumor model L1210 Leukemia (intraperitoneal) in B6D2F1 (BDF1) mice
Conditions: endpoint: mean survival time, vehicle: saline, higher = longer survival
Outline: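 Transplanted-tumor mice were given test agent; controls received vehicle only. Survival readings from the two groups were divided (treated over control).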

Measured: T/C

CCOP(=O)(CCCCN1C(=O)c2ccccc2C1=O)OCC
inactive: dose: 31.3 mg/kg/injection, schedule: Q01DX Z (ip) 101 % of control | dose: 62.5 mg/kg/injection, schedule: Q01DX Z (ip) 100 % of control | dose: 125.0 mg/kg/injection, schedule: Q01DX Z (ip) 103 % of control | dose: 250.0 mg/kg/injection, schedule: Q01DX Z (ip) 103 % of control | dose: 500.0 mg/kg/injection, schedule: Q01DX Z (ip) 92 % of control

B1CCN1
inactive: dose: 9.5 mg/kg/injection, schedule: Q01DX001 (ip) 94 % of control | dose: 19.0 mg/kg/injection, schedule: Q01DX001 (ip) 103 % of control
